Patent publication US20250282760A1 (Merck Sharp & Dohme LLC, priority 2022, published 2025)

Target: T1, human OX2R (Homo sapiens, UniProt O43614)
T1 construct: expressed in transfected cells; host or cells: Chinese hamster ovary (CHO) cells, kept under G418 selection
T1 sequence (O43614 1-444): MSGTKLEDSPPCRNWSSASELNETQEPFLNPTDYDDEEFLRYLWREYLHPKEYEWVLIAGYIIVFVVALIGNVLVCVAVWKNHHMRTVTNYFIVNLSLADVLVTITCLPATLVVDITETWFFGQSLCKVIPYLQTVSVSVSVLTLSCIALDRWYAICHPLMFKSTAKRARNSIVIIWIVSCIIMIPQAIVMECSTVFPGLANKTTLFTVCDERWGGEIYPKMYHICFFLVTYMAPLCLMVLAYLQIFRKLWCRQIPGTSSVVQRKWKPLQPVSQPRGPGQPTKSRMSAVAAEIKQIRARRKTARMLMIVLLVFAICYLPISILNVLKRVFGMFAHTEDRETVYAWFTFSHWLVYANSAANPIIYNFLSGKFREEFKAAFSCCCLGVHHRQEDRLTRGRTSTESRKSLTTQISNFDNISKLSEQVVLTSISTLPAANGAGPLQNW
Assay: IPOne (IP-1 accumulation) assay of orexin receptor agonist activity in CHO cells expressing human OX2R
Assay type: cell-based
Settings: for IC50: CHO cells expressing human OX2R, IP-One assay, 2 hours incubation, four parameter logistic fit, read-out: hOX2R_IP IC50; for Emax: CHO, percent activity at maximum tested concentration, relative to reference compound at 1 uM (100% activity) for human OX2R
Description: The utility of the compounds in accordance with the present invention as orexin receptor OX1R and/or OX2R agonists may be readily determined without undue experimentation by methodology well known in the art. Both the OX1R and/or OX2R G-coupled protein receptors (GPCRs) couple through the Gαq signaling pathway, which ultimately promotes calcium mobilization via inositol triphosphate (IP3) production. […] The utility of the compounds in accordance with the present invention as orexin receptor OX1R and/or OX2R agonists may be determined utilizing this assay.
In a typical experiment, the OX1 and OX2 receptor agonist activity is determined in accordance with the following general experimental method. Chinese hamster ovary (CHO) cells expressing human OX1R and/or the human OX2R were grown in Iscove's modified DMEM containing glutaMAX™, 1% G418, 100 U/mL penicillin, 100 μg/mL streptomycin and 10% heat-inactivated qualified fetal bovine serum (FBS). […] During this incubation, IP-one detection reagents were prepared (38:1:1 lysis buffer:D2:AB-cryptate reagents).
For each compound, data were fit to a four parameter logistic fit (ActivityBase software) and the EC50 was reported as the inflection point of the resulting curve. Percent effect for each test compound was determined as the percentage of sample raw value/mean max effect, where the mean max effect was derived from the mean raw value of 32 control wells per assay plate (using Orexin A (cat #003-30) at 1 μM for human OX1R and a reference compound at 1 uM with 100% activity previously established by comparison to Orexin A for human OX2R). The intrinsic orexin receptor agonist activity of a compound which may be used in the present invention may be determined by these assays.

| Compound | IC50 [nM] | Emax [%] |
| --- | --- | --- |
| Cc1cc(-c2ccco2)cnc1CNC(=O)[C@H]1CN(S(=O)(=O)c2ccccc2)C[C@@H](C)N1C(=O)C(C)C (relative stereo) [Example 55, cis-N-((5-(furan-2-yl)-3-methylpyridin-2-yl)methyl)-1-isobutyryl-6-methyl-4-(phenylsulfonyl)piperazine-2-carboxamide] | 2980 | 93.5 |
| CC[C@@H]1CN(S(=O)(=O)c2ccccc2)C[C@H](C(=O)NCc2ccc(-c3ccco3)cc2)N1C(=O)C(C)C (relative stereo) [Example 71, cis-6-ethyl-N-(4-(furan-2-yl)benzyl)-1-isobutyryl-4-(phenylsulfonyl)piperazine-2-carboxamide] | 244 | 100 |
| CC(C)C(=O)N1[C@@H](C(=O)NCc2ccc(-c3ccco3)cc2)CN(S(=O)(=O)c2ccccc2)C[C@H]1C(F)(F)F (relative stereo) [Example 78, cis-N-(4-(furan-2-yl)benzyl)-1-isobutyryl-4-(phenylsulfonyl)-6-(trifluoromethyl)piperazine-2-carboxamide] | 2670 | 97.1 |
| CC(C)C(=O)N1[C@H](C)CN(S(=O)(=O)c2ccccc2)C[C@@H]1C(=O)NCc1ncc(-c2ccco2)cn1 (single isomer, unassigned) [Example 39] | 6280 | 97.8 |
| CCC(F)(F)Oc1ccc(CNC(=O)[C@H]2CN(S(=O)(=O)c3ccccc3)C[C@@H](C)N2C(=O)C(C)C)cc1 (single isomer, unassigned) [Example 61, cis-N-(4-(1,1-difluoropropoxy)benzyl)-1-isobutyryl-6-methyl-4-(phenylsulfonyl)piperazine-2-carboxamide] | 100 | 93.2 |
| CC(C)C(=O)N1[C@H](C)CN(S(=O)(=O)c2ccccc2)C[C@@H]1C(=O)NCc1ccc(CC(C)(F)F)cc1 (single isomer, unassigned) [Example 66] | 2230 | 97.9 |
| O=C(NCc1ccc2ccccc2c1)C1CN(S(=O)(=O)c2ccccc2)CCN1C(=O)c1cccs1 (stereo not drawn) [Example 6, N-(naphthalen-2-ylmethyl)-4-(phenylsulfonyl)-1-(thiophene-2-carbonyl)piperazine-2-carboxamide] | 2260 | 94.3 |

Further lines, results first:

| IC50 [nM] | Emax [%] | Compound |
| --- | --- | --- |
| 85.7 | 99.8 | Cc1c(CNC(=O)[C@H]2CN(S(=O)(=O)c3ccccc3)C[C@@H](C)N2C(=O)C(C)C)ccc(-c2ccco2)c1F (relative stereo) [Example 51, cis-N-(3-fluoro-4-(furan-2-yl)-2-methylbenzyl)-1-isobutyryl-6-methyl-4-(phenylsulfonyl)piperazine-2-carboxamide] |
| 2540 | 94.3 | C[C@@H]1CN(S(=O)(=O)c2ccccc2)C[C@H](C(=O)NCc2ccc3ccccc3c2)N1C(=O)c1cccs1 (relative stereo) [Example 57, cis-6-methyl-N-(naphthalen-2-ylmethyl)-4-(phenylsulfonyl)-1-(thiophene-2-carbonyl)piperazine-2-carboxamide] |
| 22.7 | 100 | CC(C)C(=O)N1[C@H](C)CN(S(=O)(=O)c2ccccc2)C[C@@H]1C(=O)NCc1ccc(OC(C)(F)F)cc1 (single isomer, unassigned) [Example 19-4-1] |
| 9100 | 95.6 | CC(C)C(=O)N1[C@@H](C)CN(S(=O)(=O)c2ccccc2)C[C@H]1C(=O)NCc1ccc(OC(C)(F)F)cc1 (single isomer, unassigned) [Example 19-4-2] |
| 504 | 99.7 | CC(C)C(=O)N1[C@H](C)CN(S(=O)(=O)c2ccccc2)C[C@@H]1C(=O)NCc1cnc(-c2ccco2)cn1 (single isomer, unassigned) [Example 35, cis-N-((5-(furan-2-yl)pyrazin-2-yl)methyl)-1-isobutyryl-6-methyl-4-(phenylsulfonyl)piperazine-2-carboxamide] |
